Laboratory results as given in paper PMC8704707 (Pharmaceuticals, 2021).
≈ marks a conversion by molar mass, not a printed value. Where “and” joins values, the source holds several entries; their conditions need not be identical. Equal entries are not always repeated. Where two headings read alike, the source gives them in different places.

Assays:
[1] = test system: Trichophyton interdigitale ATCC 9533; experiment: microbe, parasite or virus in culture; assay type: cell-based
[2] = test system: Candida tropicalis ATCC 750; experiment: microbe, parasite or virus in culture; assay type: cell-based
[3] = molecular target: BuChE from equine serum (EqBuChE) (Equus caballus, UniProt P81908); experiment: biochemical; settings: read-out: IC50 BuChE
Chain of BuChE from equine serum (EqBuChE) (P81908 whole entry): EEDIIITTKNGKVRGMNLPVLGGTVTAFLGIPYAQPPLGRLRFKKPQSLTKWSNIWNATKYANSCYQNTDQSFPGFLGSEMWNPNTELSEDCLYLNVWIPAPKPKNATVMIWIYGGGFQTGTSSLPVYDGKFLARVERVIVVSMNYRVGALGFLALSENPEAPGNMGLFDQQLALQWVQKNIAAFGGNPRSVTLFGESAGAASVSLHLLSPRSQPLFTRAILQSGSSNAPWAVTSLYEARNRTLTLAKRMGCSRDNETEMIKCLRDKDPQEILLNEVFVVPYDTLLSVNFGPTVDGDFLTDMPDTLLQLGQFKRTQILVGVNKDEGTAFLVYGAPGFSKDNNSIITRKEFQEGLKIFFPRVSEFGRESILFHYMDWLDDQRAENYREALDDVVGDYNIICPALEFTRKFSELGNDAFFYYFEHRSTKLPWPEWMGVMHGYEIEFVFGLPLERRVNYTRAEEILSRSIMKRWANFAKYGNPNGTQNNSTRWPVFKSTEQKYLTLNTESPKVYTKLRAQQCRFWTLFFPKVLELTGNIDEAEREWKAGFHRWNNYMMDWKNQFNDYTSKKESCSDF

[4] = test system: Candida albicans ATCC 24443; experiment: microbe, parasite or virus in culture; assay type: cell-based
[5] = molecular target: AChE from electric eel (EeAChE) (Electrophorus electricus, UniProt O42275); experiment: biochemical; assay type: biochemical
Chain of AChE from electric eel (EeAChE) (O42275 24-633): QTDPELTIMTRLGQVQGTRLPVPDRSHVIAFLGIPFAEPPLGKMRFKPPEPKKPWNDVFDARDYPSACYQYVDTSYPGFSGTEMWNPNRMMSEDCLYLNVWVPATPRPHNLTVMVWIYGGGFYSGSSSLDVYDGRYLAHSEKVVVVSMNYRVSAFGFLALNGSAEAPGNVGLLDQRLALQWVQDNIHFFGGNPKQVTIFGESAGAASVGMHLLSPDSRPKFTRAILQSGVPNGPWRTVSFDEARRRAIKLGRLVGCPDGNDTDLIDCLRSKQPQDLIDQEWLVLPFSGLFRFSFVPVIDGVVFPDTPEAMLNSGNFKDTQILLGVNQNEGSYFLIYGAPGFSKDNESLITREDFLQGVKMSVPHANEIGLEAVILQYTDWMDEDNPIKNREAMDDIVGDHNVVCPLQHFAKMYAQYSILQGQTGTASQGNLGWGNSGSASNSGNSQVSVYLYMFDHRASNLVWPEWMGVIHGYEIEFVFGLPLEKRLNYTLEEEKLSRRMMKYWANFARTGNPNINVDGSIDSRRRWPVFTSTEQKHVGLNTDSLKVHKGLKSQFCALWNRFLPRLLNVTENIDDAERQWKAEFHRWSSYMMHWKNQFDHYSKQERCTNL

[6] = test system: four Gram-positive and four Gram-negative bacterial strains; experiment: Antibacterial microdilution broth method, whole panel; assay type: cell-based; settings: read-out: MIC, all bacterial strains tested
Candida krusei ATCC 6258 = experiment: microbe, parasite or virus in culture; assay type: cell-based; settings: Pichia kudriavzevii
[7] = test system: Candida parapsilosis ATCC 22019; experiment: microbe, parasite or virus in culture; assay type: cell-based; settings: Lodderomyces parapsilosis
[8] = test system: Acinetobacter baumannii ATCC 19606; experiment: Antibacterial microdilution broth method (EUCAST); assay type: cell-based
[9] = test system: Pseudomonas aeruginosa ATCC 27853; experiment: Antibacterial microdilution broth method (EUCAST); assay type: cell-based
[10] = test system: eight human pathogenic fungi; experiment: Antifungal microdilution broth method, whole panel; assay type: cell-based; settings: not reported in Table 2, read-out: MIC, all fungal strains tested
[11] = test system: Klebsiella pneumoniae ATCC 10031; settings: for MIC KP 24 h: 24 h incubation; for MIC KP 48 h: 48 h incubation
[12] = test system: Enterococcus faecalis ATCC 29212; experiment: Antibacterial microdilution broth method (EUCAST); assay type: cell-based
[13] = test system: methicillin-resistant Staphylococcus aureus ATCC 43300; experiment: Antibacterial microdilution broth method (EUCAST); assay type: cell-based; settings: ATCC 43300 / MRSA
[14] = test system: Staphylococcus epidermidis ATCC 12228; experiment: Antibacterial microdilution broth method (EUCAST); assay type: cell-based
[15] = test system: Escherichia coli ATCC 25922; experiment: Antibacterial microdilution broth method (EUCAST); assay type: cell-based
[16] = test system: Staphylococcus aureus ATCC 29213; experiment: Antibacterial microdilution broth method (EUCAST); assay type: cell-based
[17] = ATCC9533, 72 h, read-out: MIC TI 72 h
[18] = ATCC9533, 120 h, read-out: MIC TI 120 h
[19] = ATCC750, 24 h, read-out: MIC CT 24 h
[20] = ATCC750, 48 h, read-out: MIC CT 48 h
[21] = ATCC24443, 24 h, read-out: MIC CA 24 h
[22] = ATCC24443, 48 h, read-out: MIC CA 48 h
[23] = ATCC6258, 24 h, read-out: MIC CK 24 h
[24] = ATCC6258, 48 h, read-out: MIC CK 48 h
[25] = ATCC22019, 24 h, read-out: MIC CP 24 h
[26] = ATCC22019, 48 h, read-out: MIC CP 48 h
[27] = mean ± SD, n = three independent experiments, BTCh 40 µM
[28] = ATCC19606, 24 h, read-out: MIC ACI 24 h
[29] = ATCC19606, 48 h, read-out: MIC ACI 48 h
[30] = ATCC27853, 24 h, read-out: MIC PA 24 h
[31] = ATCC27853, 48 h, read-out: MIC PA 48 h
[32] = ATCC29212, 24 h, read-out: MIC EF 24 h
[33] = ATCC29212, 48 h, read-out: MIC EF 48 h
[34] = mean ± SD, n = three independent experiments, ATCh 40 µM, read-out: IC50 AChE
[35] = ATCC12228, 24 h, read-out: MIC SE 24 h
[36] = ATCC12228, 48 h, read-out: MIC SE 48 h
[37] = ATCC25922, 24 h, read-out: MIC EC 24 h
[38] = ATCC25922, 48 h, read-out: MIC EC 48 h
[39] = ATCC29213, 24 h, read-out: MIC SA 24 h
[40] = ATCC29213, 48 h, read-out: MIC SA 48 h

N=C(N/N=C/c1cc(I)cc(I)c1O)N/N=C/c1cc(I)cc(I)c1O [Compound 2g, Bis[2-((E)-2-hydroxy-3,5-diiodobenzylidene)hydrazineyl]methaniminium chloride]
MIC [1, 17]: 250 µM | MIC [1, 18]: 250 µM | MIC [2, 19]: > 500 µM | MIC [2, 20]: > 500 µM | IC50 [3]: 8.26 ± 0.21 µM | MIC [4, 21]: > 500 µM | MIC [4, 22]: > 500 µM | IC50 [5]: 54.9 ± 1.72 µM | MIC [6]: ≥ 500 µM | MIC (Candida krusei ATCC 6258; [23]): > 500 µM | MIC (Candida krusei ATCC 6258; [24]): > 500 µM | MIC [7, 25]: > 500 µM | MIC [7, 26]: > 500 µM

[H]/N=C(\N)NN=Cc1ccc(Cl)cc1 [Compound 1d, (E)-2-(4-Chlorobenzylidene)hydrazine-1-carboximidamide]
IC50 [3, 27]: < 20 µM and 13.9 µM | IC50 [5]: 45.2 ± 1.6 µM | Selectivity AChE/BuChE [5]: 3.25 | MIC [6]: ≥ 500 µM

NC(=S)N/N=C/c1cc(I)cc(I)c1O [Compound 2i, (E)-2-(2-Hydroxy-3,5-diiodobenzylidene)hydrazine-1-carbothioamide]
MIC [8, 28]: > 500 µM | MIC [8, 29]: > 500 µM | MIC [9, 30]: > 500 µM | MIC [9, 31]: > 500 µM | MIC [10]: ≥ 500 µM | IC50 [3, 27]: 86.24 ± 0.39 µM | MIC KP 24 h [11]: >500 µM | MIC KP 48 h [11]: >500 µM | MIC [12, 32]: 250 µM (≈ 112 µg/mL) | MIC [12, 33]: 250 µM (≈ 112 µg/mL) | MIC ([13]; 24 h, read-out: MIC MRSA 24 h): 500 µM (≈ 224 µg/mL) | MIC ([13]; 48 h, read-out: MIC MRSA 48 h): 500 µM (≈ 224 µg/mL) | Selectivity AChE/BuChE [5]: 0.61 | IC50 [5, 34]: 52.22 ± 0.4 µM | MIC [14, 35]: 250 µM (≈ 112 µg/mL) | MIC [14, 36]: 250 µM (≈ 112 µg/mL) | MIC [15, 37]: > 500 µM | MIC [15, 38]: > 500 µM | MIC [16, 39]: 500 µM (≈ 224 µg/mL) | MIC [16, 40]: 500 µM (≈ 224 µg/mL)

[H]/N=C(\N)NN=Cc1cccc(Cl)c1O [Compound 1e, (E)-2-(3-Chloro-2-hydroxybenzylidene)hydrazine-1-carboximidamide]
IC50 [3, 27]: < 20 µM and 5.57 µM | IC50 [5, 34]: 46.2 ± 2.26 µM | MIC [6]: ≥ 500 µM

[H]/N=C(\N)NN=Cc1cc(Cl)cc(Cl)c1O [Compound 1j, (E)-2-(3,5-Dichloro-2-hydroxybenzylidene)hydrazine-1-carboximidamide]
MIC [8, 28]: 500 µM (≈ 124 µg/mL) | MIC [8, 29]: 500 µM (≈ 124 µg/mL) | MIC [9, 30]: 250 µM (≈ 61.8 µg/mL) | MIC [9, 31]: 250 µM (≈ 61.8 µg/mL) | MIC [10]: ≥ 500 µM | IC50 [3, 27]: 61.7 ± 4.33 µM | MIC KP 24 h [11]: 500 µM (≈ 124 µg/mL) | MIC KP 48 h [11]: 500 µM (≈ 124 µg/mL) | MIC [12, 32]: 250 µM (≈ 61.8 µg/mL) | MIC [12, 33]: 250 µM (≈ 61.8 µg/mL) | MIC ([13]; 24 h, read-out: MIC MRSA 24 h): 250 µM (≈ 61.8 µg/mL) | MIC ([13]; 48 h, read-out: MIC MRSA 48 h): 250 µM (≈ 61.8 µg/mL) | Selectivity AChE/BuChE [5]: 0.66 | IC50 [5, 34]: 40.8 ± 0.8 µM | MIC [14, 35]: 250 µM (≈ 61.8 µg/mL) | MIC [14, 36]: 250 µM (≈ 61.8 µg/mL) | MIC [15, 37]: 500 µM (≈ 124 µg/mL) | MIC [15, 38]: 500 µM (≈ 124 µg/mL) | MIC [16, 39]: 250 µM (≈ 61.8 µg/mL) | MIC [16, 40]: 250 µM (≈ 61.8 µg/mL)

[H]/N=C(\NN=Cc1cc(I)cc(I)c1O)N[N+](=O)[O-] [Compound 2f, (E)-2-(2-Hydroxy-3,5-diiodobenzylidene)-N-nitrohydrazine-1-carboximidamide]
MIC [10]: ≥ 500 µM | IC50 [3, 27]: > 500 µM | IC50 [5, 34]: 34.78 ± 0.04 µM | MIC [6]: ≥ 500 µM

N=C(N)NNCc1cc(I)cc(I)c1O [Compound 2d, 2-(2-Hydroxy-3,5-diiodobenzyl)hydrazine-1-carboximidamide]
MIC [1, 17]: 62.5 µM (≈ 27 µg/mL) | MIC [1, 18]: 62.5 µM (≈ 27 µg/mL) | MIC [2, 19]: > 125 µM | MIC [2, 20]: > 125 µM | IC50 [3, 27]: 41.5 ± 1.45 µM | MIC [4, 21]: > 125 µM | MIC [4, 22]: > 125 µM | Selectivity AChE/BuChE [5]: 1.10 | IC50 [5, 34]: 45.7 ± 1.7 µM | MIC [6]: ≥ 500 µM | MIC (Candida krusei ATCC 6258; [23]): > 125 µM | MIC (Candida krusei ATCC 6258; [24]): > 125 µM | MIC [7, 25]: > 125 µM | MIC [7, 26]: > 125 µM
